The record followed here is ChEMBL document CHEMBL4627363, “S1P1-selective agonist prodrug IMMH002 is phosphorylated in rats to form an S-configured enantiomer: Synthesis, verification, and biological activity of the in vivo active metabolite” (Bioorg Med Chem Lett, 2020).

Assay [1] has as its target Sphingosine 1-phosphate receptor 1 (Homo sapiens, UniProt P21453). The assay is described as follows: Agonist activity at S1P1 (unknown origin) by HTRF assay.
Assay [2] addresses Sphingosine 1-phosphate receptor 3 (Homo sapiens, UniProt Q99500). Kind of assay: Agonist activity at S1PR3 (unknown origin) by HTRF assay.
Assay [3] is filed under the species Homo sapiens. Kind of assay: Ratio of EC50 for S1PR3 (unknown origin) to EC50 for S1PR1 (unknown origin).

Sequence of Sphingosine 1-phosphate receptor 3 (Q99500 whole entry): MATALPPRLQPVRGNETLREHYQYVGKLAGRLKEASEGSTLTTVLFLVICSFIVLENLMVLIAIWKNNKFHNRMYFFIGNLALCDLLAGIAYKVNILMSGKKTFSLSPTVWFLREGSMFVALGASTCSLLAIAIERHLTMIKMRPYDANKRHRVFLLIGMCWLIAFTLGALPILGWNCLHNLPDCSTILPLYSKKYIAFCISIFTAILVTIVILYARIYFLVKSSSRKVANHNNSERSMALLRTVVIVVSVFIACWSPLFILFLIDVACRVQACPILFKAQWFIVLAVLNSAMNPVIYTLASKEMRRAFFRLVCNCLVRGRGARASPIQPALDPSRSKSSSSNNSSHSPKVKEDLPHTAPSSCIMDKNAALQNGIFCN
Sequence of Sphingosine 1-phosphate receptor 1 (P21453 whole entry): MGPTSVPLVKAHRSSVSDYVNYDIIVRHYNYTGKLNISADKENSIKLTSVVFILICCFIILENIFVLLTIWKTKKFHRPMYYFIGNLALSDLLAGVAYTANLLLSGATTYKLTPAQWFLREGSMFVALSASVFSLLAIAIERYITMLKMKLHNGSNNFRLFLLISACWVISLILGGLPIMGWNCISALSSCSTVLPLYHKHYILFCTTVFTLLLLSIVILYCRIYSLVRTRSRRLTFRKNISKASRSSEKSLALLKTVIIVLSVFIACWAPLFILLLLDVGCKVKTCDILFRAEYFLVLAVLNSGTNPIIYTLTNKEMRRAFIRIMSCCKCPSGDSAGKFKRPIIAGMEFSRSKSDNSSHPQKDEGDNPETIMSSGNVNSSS

Take `CCc1nc(-c2ccc(-c3ccc(CC[C@](N)(CO)COP(=O)(O)O)cc3)cc2)co1`: the EC50 in assay [1] was 2.2 nM; in assay [2], 380 nM. For the same molecule, in assay [3], the Ratio EC50 amounted to 173.

With `CCc1nc(-c2ccc(-c3ccc(CCC(N)(CO)COP(=O)(O)O)cc3)cc2)co1` (racemic), the values for the EC50 in assay [1] and in assay [2] were 5 nM and 523 nM, respectively. For the same molecule, the Ratio EC50 in assay [3] was found to be 105.

On to `CCc1nc(-c2ccc(-c3ccc(CC[C@@](N)(CO)COP(=O)(O)O)cc3)cc2)co1`, for which the EC50 in assay [1] stood at 469 nM; in assay [2], 736 nM. Moreover, the Ratio EC50 in assay [3] is 1.6.

As to `CCc1nc(-c2ccc(-c3ccc(CCC(N)(CO)CO)cc3)cc2)co1`, the results for the EC50 in assay [1] and in assay [2] were 332 nM and more than 10000 nM, respectively.
